In ChEMBL document CHEMBL1129785, “Preparation and structure-activity relationship of novel P1/P1'-substituted cyclic urea-based human immunodeficiency virus type-1 protease inhibitors” (J Med Chem, 1996):
Several values for one entry are separate records, joined by “and”; a condition that tells them apart may be missing. Equal values may be shown once.

What was measured:
[1] = test system: Human immunodeficiency virus 1; experiment: Antiviral potency was assessed by measuring the effect on accumulation of viral RNA transcripts 3 days after infection of MT-2 cells with HIV-1 RF; format: functional, MT2
[2] = biological target: Human immunodeficiency virus type 1 protease (Human immunodeficiency virus 1, UniProt Q72874); experiment: Inhibitory activity against HIV protease
[3] = biological target: Human immunodeficiency virus type 1 protease (Human immunodeficiency virus 1) (UniProt Q72874); experiment: Ability to increase whole-cell antiviral efficacy through better translation defined as the ratio between IC90 and Ki; format: functional
[4] = Human immunodeficiency virus 1, MT2, 72 h

Row | Compound | IC90 [1, 4] | Ki [2] | Ratio [3] | IC90 [1]
1 | CC(C)C[C@@H]1[C@H](O)[C@@H](O)[C@@H](CC(C)C)N(Cc2ccc(CO)cc2)C(=O)N1Cc1ccc(CO)cc1 | > 10000 nM | 38 nM |  | 
2 | O=C1N(Cc2ccc(CO)cc2)[C@H](Cc2ccncc2)[C@H](O)[C@@H](O)[C@@H](Cc2ccncc2)N1Cc1ccc(CO)cc1 | > 10000 nM | 4.8 nM |  | 
3 | COc1ccc(C[C@@H]2[C@H](O)[C@@H](O)[C@@H](Cc3ccc(OC)cc3)N(Cc3ccccc3)C(=O)N2Cc2ccccc2)cc1 | 600 nM | 8.6 nM | 70 | 
4 | CS(=O)(=O)c1ccc(C[C@@H]2[C@H](O)[C@@H](O)[C@@H](Cc3ccc(S(C)(=O)=O)cc3)N(Cc3ccccc3)C(=O)N2Cc2ccccc2)cc1 | 470 nM | 2.5 nM | 190 | 
5 | COc1ccc(C[C@@H]2[C@H](O)[C@@H](O)[C@@H](Cc3ccc(OC)cc3)N(Cc3ccc(CO)cc3)C(=O)N2Cc2ccc(CO)cc2)cc1 | 56 nM | 0.24 nM | 230 | 
6 | O=C1N(Cc2ccccc2)[C@H](Cc2ccccc2)[C@H](O)[C@@H](O)[C@@H](Cc2ccccc2)N1Cc1ccccc1 | 790 nM | 3.4 nM | 230 | 
7 | CN(C)c1ccc(C[C@@H]2[C@H](O)[C@@H](O)[C@@H](Cc3ccc(N(C)C)cc3)N(Cc3ccccc3)C(=O)N2Cc2ccccc2)cc1 | 2700 nM | 46 nM | 60 | 
8 | O=C1N(CC2CC2)[C@H](Cc2cccs2)[C@H](O)[C@@H](O)[C@@H](Cc2cccs2)N1CC1CC1 | 7800 nM | 9.1 nM | 860 | 
9 | CSCC[C@@H]1[C@H](O)[C@@H](O)[C@@H](CCSC)N(Cc2ccccc2)C(=O)N1Cc1ccccc1 | > 10000 nM | 1100 nM |  | 
10 | O=C1N(CC2CC2)[C@H](Cc2ccc(F)cc2)[C@H](O)[C@@H](O)[C@@H](Cc2ccc(F)cc2)N1CC1CC1 | 3200 nM | 5.8 nM | 550 | 
11 | COc1cccc(C[C@@H]2[C@H](O)[C@@H](O)[C@@H](Cc3cccc(OC)c3)N(Cc3ccc(CO)cc3)C(=O)N2Cc2ccc(CO)cc2)c1 | 37 nM | 0.11 nM | 340 | 
12 | CSc1cccc(C[C@@H]2[C@H](O)[C@@H](O)[C@@H](Cc3cccc(SC)c3)N(Cc3ccccc3)C(=O)N2Cc2ccccc2)c1 | 4170 nM | 2.5 nM | 1700 | 
13 | O=C1N(CC2CC2)[C@H](Cc2cccc(O)c2)[C@H](O)[C@@H](O)[C@@H](Cc2cccc(O)c2)N1CC1CC1 | 2570 nM | 13 nM | 200 | 
14 | O=C1N(Cc2ccc(CO)cc2)[C@H](Cc2ccc(F)cc2)[C@H](O)[C@@H](O)[C@@H](Cc2ccc(F)cc2)N1Cc1ccc(CO)cc1 | 100 nM | 0.44 nM | 230 | 
15 | CC(C)C[C@@H]1[C@H](O)[C@@H](O)[C@@H](CC(C)C)N(Cc2ccccc2)C(=O)N1Cc1ccccc1 | > 10000 nM | 1700 nM |  | 
16 | COc1cccc(C[C@@H]2[C@H](O)[C@@H](O)[C@@H](Cc3cccc(OC)c3)N(Cc3ccccc3)C(=O)N2Cc2ccccc2)c1 | 350 nM | 4.7 nM | 75 | 
17 | CSCC[C@@H]1[C@H](O)[C@@H](O)[C@@H](CCSC)N(CC2CC2)C(=O)N1CC1CC1 | > 10000 nM |  |  | 
18 | O=C1N(Cc2ccccc2)[C@H](CCc2ccccc2)[C@H](O)[C@@H](O)[C@@H](CCc2ccccc2)N1Cc1ccccc1 | > 10000 nM | 320 nM |  | 
19 | O=C1N(Cc2ccccc2)[C@H](Cc2ccc(O)cc2)[C@H](O)[C@@H](O)[C@@H](Cc2ccc(O)cc2)N1Cc1ccccc1 | 185 nM | 1.1 nM | 170 | 
20 | CC(C)c1ccc(C[C@@H]2[C@H](O)[C@@H](O)[C@@H](Cc3ccc(C(C)C)cc3)N(Cc3ccccc3)C(=O)N2Cc2ccccc2)cc1 | > 10000 nM | 1.1 nM |  | 
21 | O=C1N(Cc2ccccc2)[C@H](Cc2ccccc2O)[C@H](O)[C@@H](O)[C@@H](Cc2ccccc2O)N1Cc1ccccc1 | 6500 nM | 35 nM | 185 | 
22 | C[C@@H]1[C@H](O)[C@@H](O)[C@@H](C)N(Cc2ccccc2)C(=O)N1Cc1ccccc1 | > 10000 nM | 5000 nM |  | 
23 | COc1cccc(C[C@@H]2[C@H](O)[C@@H](O)[C@@H](Cc3cccc(OC)c3)N(CC3CC3)C(=O)N2CC2CC2)c1 | 650 nM | 0.87 nM | 750 | 
24 | O=C1N(Cc2ccccc2)[C@H](Cc2ccc3ccccc3c2)[C@H](O)[C@@H](O)[C@@H](Cc2ccc3ccccc3c2)N1Cc1ccccc1 | 3300 nM | 9.8 nM | 340 | 

Row | Compound | IC90 [1, 4] | Ki [2] | Ratio [3] | IC90 [1]
25 | Nc1ccc(C[C@@H]2[C@H](O)[C@@H](O)[C@@H](Cc3ccc(N)cc3)N(Cc3ccccc3)C(=O)N2Cc2ccccc2)cc1 [listing 1 of 3 here] |  | 7.1 nM |  | 1300 nM
26 | O=C1N(Cc2ccccc2)[C@H](Cc2ccncc2)[C@H](O)[C@@H](O)[C@@H](Cc2ccncc2)N1Cc1ccccc1 | 5700 nM | 22 nM |  | 
27 | O=C1N(Cc2ccc(CO)cc2)[C@H](CC2CCCCC2)[C@H](O)[C@@H](O)[C@@H](CC2CCCCC2)N1Cc1ccc(CO)cc1 | > 10000 nM | 32 nM |  | 
28 | CSc1ccc(C[C@@H]2[C@H](O)[C@@H](O)[C@@H](Cc3ccc(SC)cc3)N(Cc3ccccc3)C(=O)N2Cc2ccccc2)cc1 | 1300 nM | 3.4 nM | 380 | 
29 | O=C1N(CC2CC2)[C@H](Cc2ccc3ccccc3c2)[C@H](O)[C@@H](O)[C@@H](Cc2ccc3ccccc3c2)N1CC1CC1 | 3400 nM | 4.3 nM | 790 | 
30 | CN(C)c1cccc(C[C@@H]2[C@H](O)[C@@H](O)[C@@H](Cc3cccc(N(C)C)c3)N(Cc3ccccc3)C(=O)N2Cc2ccccc2)c1 | 1200 nM | 4.3 nM | 280 | 
31 | O=C1N(Cc2ccccc2)[C@H](Cc2ccc3c(c2)OCO3)[C@H](O)[C@@H](O)[C@@H](Cc2ccc3c(c2)OCO3)N1Cc1ccccc1 | 500 nM | 1.3 nM | 385 | 
32 | CSCC[C@@H]1[C@H](O)[C@@H](O)[C@@H](CCSC)N(Cc2ccc(CO)cc2)C(=O)N1Cc1ccc(CO)cc1 | > 10000 nM | 3900 nM |  | 
33 | Cc1ccc(C)n1-c1cccc(C[C@@H]2[C@H](O)[C@@H](O)[C@@H](Cc3cccc(-n4c(C)ccc4C)c3)N(Cc3ccccc3)C(=O)N2Cc2ccccc2)c1 | > 10000 nM | 160 nM |  | 
34 | COc1ccc(C[C@@H]2[C@H](O)[C@@H](O)[C@@H](Cc3ccc(OC)cc3)N(CC3CC3)C(=O)N2CC2CC2)cc1 | 320 nM | 2.9 nM | 110 | 
35 | O=C1N(Cc2ccc(CO)cc2)[C@H](Cc2ccccc2)[C@H](O)[C@@H](O)[C@@H](Cc2ccccc2)N1Cc1ccc(CO)cc1 [DMP-323] | 136 nM | 0.27 nM | 500 | 
36 | O=C1N(CC2CC2)[C@H](Cc2ccccc2)[C@H](O)[C@@H](O)[C@@H](Cc2ccccc2)N1CC1CC1 | 1840 nM | 1.9 nM | 970 | 
37 | CC(C)C[C@@H]1[C@H](O)[C@@H](O)[C@@H](CC(C)C)N(CC2CC2)C(=O)N1CC1CC1 | > 10000 nM | 86 nM |  | 
38 | O=C1N(Cc2ccccc2)[C@H](Cc2c[nH]c3ccccc23)[C@H](O)[C@@H](O)[C@@H](Cc2c[nH]c3ccccc23)N1Cc1ccccc1 | > 10000 nM | 580 nM |  | 
39 | Nc1ccc(C[C@@H]2[C@H](O)[C@@H](O)[C@@H](Cc3ccc(N)cc3)N(Cc3ccccc3)C(=O)N2Cc2ccccc2)cc1 [listing 2 of 3 here] | 1400 nM | 8.5 nM |  | 
40 | COc1ccccc1C[C@@H]1[C@H](O)[C@@H](O)[C@@H](Cc2ccccc2OC)N(CC2CC2)C(=O)N1CC1CC1 | > 10000 nM | 65 nM |  | 
41 | O=C1N(Cc2ccccc2)[C@H](CC2CCCCC2)[C@H](O)[C@@H](O)[C@@H](CC2CCCCC2)N1Cc1ccccc1 | > 10000 nM | 28 nM |  | 
42 | O=C1N(Cc2ccc(CO)cc2)[C@H](Cc2ccc(F)c(F)c2)[C@H](O)[C@@H](O)[C@@H](Cc2ccc(F)c(F)c2)N1Cc1ccc(CO)cc1 | 36 nM | 0.47 nM | 76 | 
43 | CC(C)[C@@H]1[C@H](O)[C@@H](O)[C@@H](C(C)C)N(CC2CC2)C(=O)N1CC1CC1 | > 10000 nM |  |  | 
44 | Nc1cccc(C[C@@H]2[C@H](O)[C@@H](O)[C@@H](Cc3cccc(N)c3)N(Cc3ccccc3)C(=O)N2Cc2ccccc2)c1 | 1300 nM | 2.8 nM | 460 | 
45 | Nc1ccc(C[C@@H]2[C@H](O)[C@@H](O)[C@@H](Cc3ccc(N)cc3)N(Cc3ccccc3)C(=O)N2Cc2ccccc2)cc1 [listing 3 of 3 here] |  |  | 165 and 180 | 
46 | O=C1N(Cc2ccccc2)[C@H](Cc2ccoc2)[C@H](O)[C@@H](O)[C@@H](Cc2ccoc2)N1Cc1ccccc1 | 7800 nM | 8.4 nM | 920 | 
47 | COc1ccccc1C[C@@H]1[C@H](O)[C@@H](O)[C@@H](Cc2ccccc2OC)N(Cc2ccccc2)C(=O)N1Cc1ccccc1 | 8800 nM | 60 nM | 150 | 
48 | COc1cc(C[C@@H]2[C@H](O)[C@@H](O)[C@@H](Cc3cc(OC)cc(OC)c3)N(CC3CC3)C(=O)N2CC2CC2)cc(OC)c1 | 380 nM | 2.7 nM | 140 | 
